Data on one compound can be found in paper PMC5976465, “Triptolide, a HSP90 middle domain inhibitor, induces apoptosis in triple manner” (Oncotarget, 2018).

The target in experiment [1] is T1, HSP90β (Homo sapiens, UniProt P08238).
T1 construct: gene HSP90AB1; recombinant HSP90β expressed in BL21(DE3) from pET52b
Briefly: colorimetric ATPase assay with recombinant protein; also MANT-ADP binding and CDC37 pulldown. The class given is biochemical.

Experiment [2] has as its target T2, HSP90β (Homo sapiens, UniProt P08238, C366S).
T2 construct: gene HSP90AB1; recombinant HSP90β C366S
In words: colorimetric ATPase assay and MANT-ADP binding assay at […] TL. The class given is biochemical.

T1 sequence (P08238 2-724): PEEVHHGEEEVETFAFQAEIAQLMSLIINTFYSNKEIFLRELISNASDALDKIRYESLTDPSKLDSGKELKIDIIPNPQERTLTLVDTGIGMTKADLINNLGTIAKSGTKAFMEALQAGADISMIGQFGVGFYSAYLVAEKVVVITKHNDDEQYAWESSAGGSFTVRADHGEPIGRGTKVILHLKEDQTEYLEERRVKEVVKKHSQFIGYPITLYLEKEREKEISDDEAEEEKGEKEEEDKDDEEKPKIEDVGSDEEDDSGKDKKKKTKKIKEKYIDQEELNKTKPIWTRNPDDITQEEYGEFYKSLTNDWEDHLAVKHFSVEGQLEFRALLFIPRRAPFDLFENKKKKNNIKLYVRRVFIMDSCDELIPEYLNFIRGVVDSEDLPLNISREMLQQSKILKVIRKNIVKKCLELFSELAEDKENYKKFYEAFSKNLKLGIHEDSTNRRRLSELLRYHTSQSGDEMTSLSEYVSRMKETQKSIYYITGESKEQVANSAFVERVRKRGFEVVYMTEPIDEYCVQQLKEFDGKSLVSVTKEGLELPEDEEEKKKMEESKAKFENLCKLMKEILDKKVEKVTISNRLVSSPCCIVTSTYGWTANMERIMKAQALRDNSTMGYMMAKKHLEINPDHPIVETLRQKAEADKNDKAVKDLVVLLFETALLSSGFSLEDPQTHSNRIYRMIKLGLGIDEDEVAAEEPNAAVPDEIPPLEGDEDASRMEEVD
T2 sequence (P08238 2-724 C366S): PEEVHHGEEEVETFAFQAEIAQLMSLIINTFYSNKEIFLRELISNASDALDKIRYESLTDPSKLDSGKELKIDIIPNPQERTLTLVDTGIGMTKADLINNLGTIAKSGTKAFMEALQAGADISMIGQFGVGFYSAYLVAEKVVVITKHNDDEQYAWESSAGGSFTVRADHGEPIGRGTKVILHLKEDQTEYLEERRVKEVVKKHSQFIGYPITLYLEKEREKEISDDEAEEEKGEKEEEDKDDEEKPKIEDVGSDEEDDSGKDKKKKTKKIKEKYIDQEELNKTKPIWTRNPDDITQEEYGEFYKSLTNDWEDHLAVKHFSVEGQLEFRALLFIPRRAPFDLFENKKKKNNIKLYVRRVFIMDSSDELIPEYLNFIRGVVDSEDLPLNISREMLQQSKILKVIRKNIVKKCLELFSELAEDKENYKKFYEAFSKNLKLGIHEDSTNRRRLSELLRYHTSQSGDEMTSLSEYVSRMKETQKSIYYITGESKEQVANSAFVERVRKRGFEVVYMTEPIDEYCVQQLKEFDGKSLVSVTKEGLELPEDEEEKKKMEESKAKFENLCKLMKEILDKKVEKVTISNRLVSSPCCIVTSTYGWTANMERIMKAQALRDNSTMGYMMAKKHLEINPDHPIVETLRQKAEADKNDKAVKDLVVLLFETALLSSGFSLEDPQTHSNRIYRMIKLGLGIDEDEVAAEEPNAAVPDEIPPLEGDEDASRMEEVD

With `CC(C)[C@]12O[C@H]1[C@@H]1O[C@]13[C@]1(O[C@H]1C[C@H]1C4=C(CC[C@@]13C)C(=O)OC4)[C@@H]2O` [TL, Triptolide], the IC50 in experiment [1] was determined as 29.9 µM. Further, the “colorimetric ATPase assay and MANT-ADP binding assay at 50 μM TL” value in experiment [2] was “TL exhibited a similar inhibitory effect on both HSP90β^WT and HSP90β^C366S”.

What is called IC50 is the point on the concentration scale where inhibition reaches its midpoint.
